Experimental data reported in EP0314828A1, “4-Phenyl-1,2,3,4-tetrahydroisoquinolins as ulcer agents” (S O "PHARMACHIM", priority 1987, dated 1989).
Read-outs that look alike come from different tables or passages of the source.

What was measured:
[1] = test system: Wasser-Immersions-Streßgeschwüren; assay: water-immersion stress ulcer model in rats, oral administration; assay type: in vivo, Ratten; set-up: Ulkusindex: scale not given here; conditions: for Prozent der Unterdrückung des Ulkusindexes / Ulkusindex / Prozentsatz der Unterdrückung des Ulkusindexes: rats
Description: Die Versuche werden mit 280 weißen männlichen Ratten - Wistar-Rasse - mit einem Gewicht von 150 bis 200 g nach der Takagi K., Ishii Y, Arzneim. Forsch. Drug.Res. 17, 1544 (1967) Methode durchgeführt und entsprechend modifiziert. Achtzehn Stunden vor dem Versuch werden die Tiere nicht gefüttert bei freiem Zugang zu Wasserquellen. Die Verbindungen der allgemeinen Formel I werden oral verabreicht; anschließend werden die Ratten, zur Verhinderung jeglicher Bewegung, auf dem Rücken an einer Unterlage angebunden, untereinander isoliert und in bis auf 17 - 18° C temperiertes Wasser getaucht. Fünf Stunden später wurden die Tiere getötet, ihre Mägen herausgenommen und makroskopische destruktive Änderungen festgestellt.
Die Prüfmethode ist dieselbe wie in Beispiel 1.

[2] = test system: durch Reserpin hervorgerufenen Geschwüren; assay: reserpine-induced ulcer model in rats; assay type: in vivo, Ratten; set-up: Ulkusindex: scale not given here; conditions: for Prozentsatz der Unterdrückung des Ulkusindexes / Ulkusindex: Table 6, rats; for Ulkusindex: Kontrolle 44,58
Experimental: Die Versuche werden mit 180 weißen, männlichen Ratten - Rasse Wistar - mit einem Gewicht von 180 bis 270 g durchgeführt. Die Tiere werden 48 Stunden nicht gefüttert bei freiem Zugang zu Wasserquellen. Die Geschwüre wurden hervorgerufen durch die Injektion von 5 mg/kg Reserpin. Eine halbe Stunde vor Einführung des Reserpins erhalten die Tiere peroral verschiedene Dosen von Ia, die Kontrolltiere Wasser, 24 Stunden nach Einführung des Reserpins werden die Tiere mit Thiopental getötet. Die destruktiven Magenveränderungen werden makroskopisch bestimmt. Es wurden Vergleichsuntersuchungen mit Cimetidin und Ranitidin (Tabelle 6) durchgeführt.

Geschwüren nach Shei = assay: ulcer model according to Shei (ligature) in rats; assay type: in vivo, Ratten; conditions: Table 7, Kontrolle 16
Description: Die Versuche wurden mit weißen, männlichen Ratten, Rasse Wistar, mit einem Gewicht von 180 bis 270 g durchgeführt. Die Tiere werden 48 Stunden nicht gefüttert bei freiem Zugang zu Wasserquellen. 5 Stunden nach der Ligatur werden die Tiere getötet, die Mägen werden herausgenommen und die destruktiven Veränderungen makroskopisch untersucht. Als Vergleichspräparate wurden Cimetidin und Ranitidin angewandt (Tabelle 7). TABELLE 7

acute toxicity in mice = conditions: mouse, in vivo, Mäusen, read-out: LD₅₀
[3] = test system: durch Indometacin hervorgerufenen Geschwüren; assay: indometacin-induced ulcer model in rats; assay type: in vivo, Ratten
Experimental: Die Versuche werden mit 50 weißen, männlichen Ratten der Rasse Wistar mit einem Gewicht von 170 bis 200 g durchgeführt. Achtzehn Stunden vor dem Versuch werden die Tiere nicht gefüttert bei freiem Zugang zu Wasserquellen. Das Indometacin wird in einer Dosis von 35 mg/kg intraperitoneal eine halbe Stunde nach der peroralen Verabreichung der Verbindung Ia, eingeführt. In der fünften Stunde werden die Tiere getötet, die Mägen werden herausgenommen und es werden makroskopisch die destruktiven Veränderungen bestimmt. TABELLE 5

Streßgeschwüren = conditions: experimental models of stress ulcers in mice; M. Bickel, Arzn.Forsch. 30 (1), 69, 1980; cited from earlier work
sauere Magensekret = conditions: in contrast to Histamin-H₂-Antagonisten; M. Bickel, Arzn.Forsch. 30 (1), 69, 1980; cited from earlier work
[4] = Table 1, peroral, Dosis 1 mg/kg, 5 h immersion
[5] = Table 1, peroral, Dosis 1 mg/kg, 5 h immersion, Kontrolle 55,1

## CCOC(=O)Nc1cccc2c1CN(C)CC2c1ccc(Cl)cc1.O=C(O)/C=C\C(=O)O (stereo not drawn) [Ic, /-/-2-Methyl-4-/4-chlorphenyl/8-ethoxycarbonylamino-1,2,3,4-tetrahydroisochinolin-saures Maleat]
[1]; [4]
  Prozent der Unterdrückung des Ulkusindexes: 28,20 Prozent
[1]; [5]
  Ulkusindex: 39,58

## CNC(=NCCSCc1nc[nH]c1C)NC#N [Cimetidin, N-Cyan-N-methyl-N-2/ 4-methyl-imidazolin/methylthio-ethylguanidinium, reference compound]
[2]; 100 mg/kg
  Prozentsatz der Unterdrückung des Ulkusindexes: 38,00 Prozent
  Ulkusindex: 27,62
Geschwüren nach Shei; rats, 100 mg/kg
  Ulkusindex: 12,2

## CCOC(=O)Nc1cccc2c1CN(C)CC2c1ccc(Cl)cc1.O=C(O)/C=C\C(=O)O (racemic) [Ib, /+/-2-Methyl-4-/4-chlorphenyl/8-ethoxycarbonylamino-1,2,3,4-tetrahydroisochinolin-saures Maleat]
[1]; [5]
  Ulkusindex: 7,00
[1]; Table 1 data, 1 mg/kg peroral
  Aktivität im Vergleich mit /+/(Ib): vierfach niedrigere Aktivität

## CCOC(=O)Nc1cccc2c1CN(C)CC2c1ccc(Cl)cc1 (racemic) [Ia, 2-Methyl-4-/4-Chlorphenyl/-8-Ethoxykarbonylamino-1,2,3,4-tetrahydroisochinolin]
Acute toxicity in mice; ip, intraperitoneal
  LD50: 125 mg/kg
Acute toxicity in mice; oral
  LD50: 250 mg/kg
[2]; peroral, 1 mg/kg
  Prozentsatz der Unterdrückung des Ulkusindexes: 47,2 Prozent
  Ulkusindex: 23,5
[2]; peroral, 2 mg/kg
  Prozentsatz der Unterdrückung des Ulkusindexes: 57,37 Prozent
  Ulkusindex: 19,00
[2]; peroral, 3 mg/kg
  Prozentsatz der Unterdrückung des Ulkusindexes: 41,00 Prozent
  Ulkusindex: 26,00
[2]; peroral, 0,250 mg/kg
  Prozentsatz der Unterdrückung des Ulkusindexes: 6,9 Prozent
[2]; peroral, 0,250 mg/kg, Reserpin 5 mg/kg
  Ulkusindex: 41,5
[2]; peroral, 0,500 mg/kg
  Prozentsatz der Unterdrückung des Ulkusindexes: 17 Prozent
  Ulkusindex: 37
[2]; peroral, 1,5 mg/kg
  Prozentsatz der Unterdrückung des Ulkusindexes: 52,15 Prozent
  Ulkusindex: 21,33
[2]; maximal effect of Ia at 1,5 and 2 mg/kg vs Cimetidin 100 mg/kg and Ranitidin 30 mg/kg
  Ulkuseffekt gegenüber Vergleichspräparaten Cimetidin und Ranitidin: mehrfach höher
[3]; Table 5, peroral, 0,050 mg/kg
  Prozentsatz der Unterdrückung des Ulkusindexes: 37 Prozent
[3]; Table 5, peroral, 0,050 mg/kg, Indometacin 35 mg/kg i.p., Kontrolle 19,5
  Ulkusindex: 12,2
[3]; Table 5, peroral, 0,250 mg/kg
  Prozentsatz der Unterdrückung des Ulkusindexes: 40,6 Prozent
[3]; Table 5, peroral, 0,250 mg/kg, Kontrolle 19,5
  Ulkusindex: 10,4
[3]; Table 5, peroral, 0,500 mg/kg
  Prozentsatz der Unterdrückung des Ulkusindexes: 52 Prozent
[3]; Table 5, peroral, 0,500 mg/kg, Kontrolle 19,5
  Ulkusindex: 9,3
[3]; Table 5, peroral, 1,100 mg/kg
  Prozentsatz der Unterdrückung des Ulkusindexes: 78 Prozent
[3]; Table 5, peroral, 1,100 mg/kg, Kontrolle 19,5
  Ulkusindex: 4,2
[3]; peroral, minimal dose printed as 0,1 mg/kg
  Unterdrückungsprozentsatz: 37
[3]; peroral, minimal dose printed as 0,1 mg/kg, Kontrolltiere 19,5
  Ulkusindex: 12,2
Geschwüren nach Shei; rats, 0,100 mg/kg, 5 h after ligature
  Ulkusindex: 22
Geschwüren nach Shei; rats, 0,500 mg/kg
  Ulkusindex: 13
Geschwüren nach Shei; rats, 1,5 mg/kg
  Ulkusindex: 7,13
Geschwüren nach Shei; rats, 1,000 mg/kg
  Ulkusindex: 8,25
[1]; [4]
  Prozent der Unterdrückung des Ulkusindexes: 92,1 Prozent
[1]; [5]
  Ulkusindex: 4,33
[1]; Table 3, oral, 0,100 mg/kg
  Prozent der Unterdrückung des Ulkusindexes: 46 Prozent
[1]; Table 3, oral, 0,100 mg/kg, Kontrolle 76.6
  Ulkusindex: 41,3
[1]; Table 3, oral, 0,250 mg/kg
  Prozent der Unterdrückung des Ulkusindexes: 57,3 Prozent
[1]; Table 3, oral, 0,250 mg/kg, Kontrolle 76.6
  Ulkusindex: 32,7
[1]; Table 3, oral, 0,500 mg/kg
  Prozent der Unterdrückung des Ulkusindexes: 75,5 Prozent
[1]; Table 3, oral, 0,500 mg/kg, Kontrolle 76.6
  Ulkusindex: 18,8
[1]; Table 3, oral, 1,000 mg/kg
  Prozent der Unterdrückung des Ulkusindexes: 85,00 Prozent
[1]; Table 3, oral, 1,000 mg/kg, Kontrolle 76.6
  Ulkusindex: 11,3
[1]; ratio of doses for maximal suppression: Ia 1 mg/kg vs Ranitidin 30 mg/kg (Tables 3 and 4)
  höhere Ulkusaktivität im Vergleich zu Ranitidin: 30 fach

## CCOC(=O)Nc1cccc2c1CN(C)CC2c1ccccc1 (racemic) [If, /+/-2-Methyl-4-phenyl-8-ethoxycarbonylamino-1,2,3,4-tetrahydroisochinolin]
[1]; [4]
  Prozent der Unterdrückung des Ulkusindexes: 36,30 Prozent
[1]; [5]
  Ulkusindex: 35,10

## CN1Cc2c(N)cccc2C(c2ccc(Cl)cc2)C1 (stereo not drawn) [Id, 2-Methyl-4-/4-chlorphenyl/-8-amino-1,2,3,4-tetrahydroisochinolin]
[1]; [4]
  Prozent der Unterdrückung des Ulkusindexes: 86,40 Prozent
[1]; [5]
  Ulkusindex: 7,50

## CN1Cc2c(Cl)cccc2C(c2ccccc2)C1 (stereo not drawn) [Ih, 2-Methyl-4-phenyl-8-chlor-1,2,3,4-tetrahydroisochinolin]
[1]; [4]
  Prozent der Unterdrückung des Ulkusindexes: 36,60 Prozent
[1]; [5]
  Ulkusindex: 34,90

## CNC(=C[N+](=O)[O-])NCCSCc1ccc(CN(C)C)o1 [Ranitidin, N-/5-Dimethylamino-methyl/-2-furanil-methyl-thioethyl-/N-methyl-2-nitro/-1,1-ethan-diamin, reference compound]
[2]; 30 mg/kg
  Prozentsatz der Unterdrückung des Ulkusindexes: 48,40 Prozent
  Ulkusindex: 23,00
Geschwüren nach Shei; rats, 30 mg/kg
  Ulkusindex: 9
[1]; Table 4, peroral, 0,5 mg/kg
  Prozentsatz der Unterdrückung des Ulkusindexes: ~27 Prozent
[1]; Table 4, peroral, 0,5 mg/kg, Kontrolle 44,3
  Ulkusindex: 32,3
[1]; Table 4, peroral, 1 mg/kg
  Prozentsatz der Unterdrückung des Ulkusindexes: 39,27 Prozent
[1]; Table 4, peroral, 1 mg/kg, Kontrolle 44,3
  Ulkusindex: 26,9
[1]; Table 4, peroral, 3 mg/kg
  Prozentsatz der Unterdrückung des Ulkusindexes: 35,89 Prozent
[1]; Table 4, peroral, 3 mg/kg, Kontrolle 44,3
  Ulkusindex: 28,4
[1]; Table 4, peroral, 10 mg/kg
  Prozentsatz der Unterdrückung des Ulkusindexes: 48,98 Prozent
[1]; Table 4, peroral, 10 mg/kg, Kontrolle 44,3
  Ulkusindex: 22,6
[1]; Table 4, peroral, 30 mg/kg
  Prozentsatz der Unterdrückung des Ulkusindexes: 61,62 Prozent
[1]; Table 4, peroral, 30 mg/kg, Kontrolle 44,3
  Ulkusindex: 17,0

## CCOC(=O)Nc1cccc2c1CN(C)CC2c1ccccc1.O=C(O)/C=C\C(=O)O (stereo not drawn) [Ig, /-/-2-Methyl-4-phenyl-8-ethoxycarbonylamino-1,2,3,4-tetrahydroisochinolin-saures Maleat]
[1]; [4]
  Prozent der Unterdrückung des Ulkusindexes: 48,00 Prozent
[1]; [5]
  Ulkusindex: 28,60

## CCOC(=O)Nc1cccc2c1CN(C)CC2c1ccccc1 (racemic) [Ie, 2-Methyl-4-phenyl-8-ethoxycarbonylamino-1,2,3,4-tetrahydroisochinolin]
[1]; [4]
  Prozent der Unterdrückung des Ulkusindexes: 40,60 Prozent
[1]; [5]
  Ulkusindex: 32,70

## CN1Cc2c(N)cccc2C(c2ccccc2)C1.O=C(O)/C=C\C(=O)O (stereo not drawn) [Alival, 2-Methyl-4-phenyl-8-amino-1,2,3,4-tetrahydroisochinolin-saueres-Maleat]
Streßgeschwüren
  Antigeschwüreffekt: einen Antigeschwüreffekt aufweist
Sauere Magensekret
  Inhibierung des saueren Magensekrets: nicht inhibiert
